Target: T1, LRRK2 wild type (recombinant human, catalytic domain amino acids 970-2527, GST-tagged) (Homo sapiens, UniProt Q5S007)
T1 construct: The wild type used was recombinant human, catalytic domain (amino acids 970-2527) GST-tagged, expressed in insect cells; GST; purchased Invitrogen Corporation PV4873; host or cells: insect cells
Assay: LRRK2 wild type protein kinase assay ([γ-33P] ATP, peptide substrate […]), IC50
Assay type: biochemical
Details: LRRK2 (variant not given); read-out: Potency score, LRRK2 IC50
How it was run: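 Insect-cell-expressed enzyme (~5 nM), no activation, incubated 180 min at ~21 °C in 50 mM Tris-HCl pH 7.5, 0.1 mM EGTA, 1 mM DTT, 10 mM MgCl2 with 100 μM peptide substrate and [γ-33P]ATP. Reaction stopped with orthophosphoric acid, captured on P81 filters and counted; IC50 from 10 concentrations in duplicate.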

T1 sequence (Q5S007 970-2527): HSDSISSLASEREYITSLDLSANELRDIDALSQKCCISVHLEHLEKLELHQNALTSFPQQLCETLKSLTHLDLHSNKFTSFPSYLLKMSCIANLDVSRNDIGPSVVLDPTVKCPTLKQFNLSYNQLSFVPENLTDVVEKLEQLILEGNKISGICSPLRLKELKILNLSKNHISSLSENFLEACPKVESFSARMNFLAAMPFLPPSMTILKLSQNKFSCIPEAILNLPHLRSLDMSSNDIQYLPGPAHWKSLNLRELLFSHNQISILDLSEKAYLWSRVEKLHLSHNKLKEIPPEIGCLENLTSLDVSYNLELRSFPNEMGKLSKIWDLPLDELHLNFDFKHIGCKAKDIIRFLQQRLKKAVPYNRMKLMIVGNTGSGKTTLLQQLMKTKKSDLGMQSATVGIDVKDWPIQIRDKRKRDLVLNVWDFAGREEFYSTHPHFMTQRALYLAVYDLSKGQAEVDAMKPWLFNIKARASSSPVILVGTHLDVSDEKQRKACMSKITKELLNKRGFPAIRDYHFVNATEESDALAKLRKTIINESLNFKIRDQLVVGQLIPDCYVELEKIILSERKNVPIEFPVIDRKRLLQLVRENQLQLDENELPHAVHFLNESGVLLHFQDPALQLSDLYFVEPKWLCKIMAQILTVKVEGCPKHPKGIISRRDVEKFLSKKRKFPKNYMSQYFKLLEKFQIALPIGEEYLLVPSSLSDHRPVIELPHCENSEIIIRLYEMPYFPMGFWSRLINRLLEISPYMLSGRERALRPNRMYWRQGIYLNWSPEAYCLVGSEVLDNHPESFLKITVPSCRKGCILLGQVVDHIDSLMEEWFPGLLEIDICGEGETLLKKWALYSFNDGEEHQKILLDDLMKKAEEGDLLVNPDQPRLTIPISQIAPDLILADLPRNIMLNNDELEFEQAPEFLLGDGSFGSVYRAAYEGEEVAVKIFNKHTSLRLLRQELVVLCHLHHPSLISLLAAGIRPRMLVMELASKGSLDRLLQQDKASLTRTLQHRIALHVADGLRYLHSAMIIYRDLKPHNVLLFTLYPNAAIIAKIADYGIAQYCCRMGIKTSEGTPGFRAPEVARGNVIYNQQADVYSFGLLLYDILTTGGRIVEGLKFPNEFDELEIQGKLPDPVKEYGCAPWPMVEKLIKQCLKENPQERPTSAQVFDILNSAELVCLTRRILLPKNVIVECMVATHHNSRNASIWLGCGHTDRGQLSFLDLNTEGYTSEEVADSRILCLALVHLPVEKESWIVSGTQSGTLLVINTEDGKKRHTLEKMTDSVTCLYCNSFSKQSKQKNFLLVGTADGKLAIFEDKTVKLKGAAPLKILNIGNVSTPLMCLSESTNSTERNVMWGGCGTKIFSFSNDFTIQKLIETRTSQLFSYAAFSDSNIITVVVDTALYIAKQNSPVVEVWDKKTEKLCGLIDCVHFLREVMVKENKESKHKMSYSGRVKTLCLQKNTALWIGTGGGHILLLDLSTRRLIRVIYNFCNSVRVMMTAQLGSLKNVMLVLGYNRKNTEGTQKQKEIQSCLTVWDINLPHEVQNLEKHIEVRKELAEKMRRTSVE

Compound	IC50
O=C(CCc1n[nH]c2ccnc(NC3CCCCC3)c12)N1CCN(Cc2ccc(F)cc2F)CC1 [Example 179, 3-(4-Cyclohexylamino-1H-pyrazolo[4,3-c]pyridin-3-yl)-1-[4-(2,4-difluoro-benzyl)-piperazin-1-yl]-propan-1-one]	100 to 1000 nM
CC(C)CN(C)C(=O)CCc1n[nH]c2ccnc(NC3CCCCC3)c12 [Example 182, 3-(4-Cyclohexylamino-1H-pyrazolo[4,3-c]pyridin-3-yl)-N-isobutyl-N-methyl-propionamide]	100 to 1000 nM
O=C(CCc1n[nH]c2ccnc(NC3CCCCC3)c12)NCc1cccc(F)c1 [Example 186, 3-(4-Cyclohexylamino-1H-pyrazolo[4,3-c]pyridin-3-yl)-N-(3-fluoro-benzyl)-propionamide]	1000 to 10000 nM
O=C(CCc1n[nH]c2ccnc(NC3CCCCC3)c12)Nc1cccnc1 [Example 188, 3-(4-Cyclohexylamino-1H-pyrazolo[4,3-c]pyridin-3-yl)-N-pyridin-3-yl-propionamide]	1000 to 10000 nM
CN(CCc1ccccc1)C(=O)CCc1n[nH]c2ccnc(NC3CCCCC3)c12 [Example 189, 3-(4-Cyclohexylamino-1H-pyrazolo[4,3-c]pyridin-3-yl)-N-methyl-N-phenethyl-propionamide]	1000 to 10000 nM
CC1CCN(C(=O)CCc2n[nH]c3ccnc(NC4CCCCC4)c23)CC1 [Example 192, 3-(4-Cyclohexylamino-1H-pyrazolo[4,3-c]pyridin-3-yl)-1-(4-methyl-piperidin-1-yl)-propan-1-one]	100 to 1000 nM
COC1CCCN(C(=O)CCc2n[nH]c3ccnc(NC4CCCCC4)c23)C1 (centres unmarked) [Example 196, 3-(4-Cyclohexylamino-1H-pyrazolo[4,3-c]pyridin-3-yl)-1-(3-methoxy-piperidin-1-yl)-propan-1-one]	100 to 1000 nM
Cc1noc(C2CCCN(C(=O)CCc3n[nH]c4ccnc(NC5CCCCC5)c34)C2)n1 (centres unmarked) [Example 197, 3-(4-Cyclohexylamino-1H-pyrazolo[4,3-c]pyridin-3-yl)-1-[3-(3-methyl-1,2,4-oxadiazol-5-yl)-piperidin-1-yl]-propan-1-one]	100 to 1000 nM
CC1CCCCN1C(=O)CCc1n[nH]c2ccnc(NC3CCCCC3)c12 (centres unmarked) [Example 198, 3-(4-Cyclohexylamino-1H-pyrazolo[4,3-c]pyridin-3-yl)-1-(2-methyl-piperidin-1-yl)-propan-1-one]	100 to 1000 nM
CC1CCCN(C(=O)CCc2n[nH]c3ccnc(NC4CCCCC4)c23)C1 (centres unmarked) [Example 199, 3-(4-Cyclohexylamino-1H-pyrazolo[4,3-c]pyridin-3-yl)-1-(3-methyl-piperidin-1-yl)-propan-1-one]	< 100 nM
O=C(CCc1n[nH]c2ccnc(NC3CCCCC3)c12)N1CCCCC1c1ccccc1 (centres unmarked) [Example 201, 3-(4-Cyclohexylamino-1H-pyrazolo[4,3-c]pyridin-3-yl)-1-(2-phenyl-piperidin-1-yl)-propan-1-one]	100 to 1000 nM
O=C(CCc1n[nH]c2ccnc(NC3CCCCC3)c12)N1CCC(C(F)(F)F)CC1 [Example 203, 3-(4-Cyclohexylamino-1H-pyrazolo[4,3-c]pyridin-3-yl)-1-(4-trifluoromethyl-piperidin-1-yl)-propan-1-one]	100 to 1000 nM
O=C(CCc1n[nH]c2ccnc(NC3CCCCC3)c12)N1CCC(c2ccccc2)CC1 [Example 204, 3-(4-Cyclohexylamino-1H-pyrazolo[4,3-c]pyridin-3-yl)-1-(4-phenyl-piperidin-1-yl)-propan-1-one]	< 100 nM
O=C(CCc1n[nH]c2ccnc(NC3CCCCC3)c12)N1CCOC(c2ccccc2)C1 (centres unmarked) [Example 205, 3-(4-Cyclohexylamino-1H-pyrazolo[4,3-c]pyridin-3-yl)-1-(2-phenyl-morpholin-4-yl)-propan-1-one]	100 to 1000 nM
O=C(CCc1n[nH]c2ccnc(NC3CCCCC3)c12)N1CCC(c2ccccc2)C1 (centres unmarked) [Example 206, 3-(4-Cyclohexylamino-1H-pyrazolo[4,3-c]pyridin-3-yl)-1-(3-phenyl-pyrrolidin-1-yl)-propan-1-one]	< 100 nM
O=C(CCc1n[nH]c2ccnc(NC3CCCCC3)c12)N1CCC(c2cccnc2)C1 (centres unmarked) [Example 207, 3-(4-Cyclohexylamino-1H-pyrazolo[4,3-c]pyridin-3-yl)-1-(3-pyridin-3-yl-pyrrolidin-1-yl)-propan-1-one]	< 100 nM
O=C(CCc1n[nH]c2ccnc(NC3CCCCC3)c12)N1CCCCC1c1cccnc1 (centres unmarked) [Example 208, 3-(4-Cyclohexylamino-1H-pyrazolo[4,3-c]pyridin-3-yl)-1-(3,4,5,6-tetrahydro-2H-[2,3′]bipyridinyl-1-yl)-propan-1-one]	< 100 nM
O=C(CCc1n[nH]c2ccnc(NC3CCCCC3)c12)N1CCC(c2ccncc2)C1 (centres unmarked) [Example 209, 3-(4-Cyclohexylamino-1H-pyrazolo[4,3-c]pyridin-3-yl)-1-(3-pyridin-4-yl-pyrrolidin-1-yl)-propan-1-one]	< 100 nM
CNC(=O)CCc1n[nH]c2ccnc(NC3CCCCC3)c12 [Example 210, 3-(4-Cyclohexylamino-1H-pyrazolo[4,3-c]pyridin-3-yl)-N-methyl-propionamide]	1000 to 10000 nM
COCCNC(=O)CCc1n[nH]c2ccnc(NC3CCCCC3)c12 [Example 211, 3-(4-Cyclohexylamino-1H-pyrazolo[4,3-c]pyridin-3-yl)-N-(2-methoxy-ethyl)-propionamide]	1000 to 10000 nM
c1ccc([C@@H]2CCCN(CCCc3n[nH]c4ccnc(NC5CCCCC5)c34)C2)cc1 [Example 215, Cyclohexyl-{3-[3-((S)-3-phenyl-piperidin-1-yl)-Propyl]-1H-pyrazolo[4,3-c]pyridin-4-yl}-amine]	1000 to 10000 nM
c1ccc(-c2nnc(CCc3n[nH]c4ccnc(NC5CCCCC5)c34)o2)cc1 [Example 216, Cyclohexyl-{3-[2-(5-phenyl-1,3,4-oxadiazol-2-yl)-ethyl]-1H-pyrazolo[4,3-c]pyridin-4-yl}-amine]	100 to 1000 nM
c1cc2[nH]nc(CCC3CCNCC3)c2c(NC2CCCCC2)n1 [Example 217, Cyclohexyl-[3-(2-piperidin-4-yl-ethyl)-1H-pyrazolo[4,3-c]pyridin-4-yl]-amine]	1000 to 10000 nM

Now from value to compound:

IC50	Compound
100 to 1000 nM	O=C(CCc1n[nH]c2ccnc(NC3CCCCC3)c12)N1CCN(c2cccc(Cl)c2)CC1 [Example 180, 1-[4-(3-Chloro-phenyl)-piperazin-1-yl]-3-(4-cyclohexylamino-1H-pyrazolo[4,3-c]pyridin-3-yl)-propan-1-one]
100 to 1000 nM	CCN(CC)C(=O)CCc1n[nH]c2ccnc(NC3CCCCC3)c12 [Example 181, 3-(4-Cyclohexylamino-1H-pyrazolo[4,3-c]pyridin-3-yl)-N,N-diethyl-propionamide]
100 to 1000 nM	CN(Cc1ccccc1)C(=O)CCc1n[nH]c2ccnc(NC3CCCCC3)c12 [Example 183, N-Benzyl-3-(4-cyclohexylamino-1H-pyrazolo[4,3-c]pyridin-3-yl)-N-methyl-propionamide]
100 to 1000 nM	O=C(CCc1n[nH]c2ccnc(NC3CCCCC3)c12)NC1CCCC1 [Example 184, 3-(4-Cyclohexylamino-1H-pyrazolo[4,3-c]pyridin-3-yl)-N-cyclopentyl-propionamide]
1000 to 10000 nM	O=C(CCc1n[nH]c2ccnc(NC3CCCCC3)c12)NCC1CCOCC1 [Example 185, 3-(4-Cyclohexylamino-1H-pyrazolo[4,3-c]pyridin-3-yl)-N-(tetrahydro-pyran-4-ylmethyl)-propionamide]
1000 to 10000 nM	O=C(CCc1n[nH]c2ccnc(NC3CCCCC3)c12)Nc1cccc(F)c1 [Example 187, 3-(4-Cyclohexylamino-1H-pyrazolo[4,3-c]pyridin-3-yl)-N-(3-fluoro-phenyl)-propionamide]
100 to 1000 nM	O=C(CCc1n[nH]c2ccnc(NC3CCCCC3)c12)N1CCC[C@@H](c2ccccc2)C1 [Example 190, 3-(4-Cyclohexylamino-1H-pyrazolo[4,3-c]pyridin-3-yl)-1-((S)-3-phenyl-piperidin-1-yl)-propan-1-one]
< 100 nM	O=C(CCc1n[nH]c2ccnc(NC3CCCCC3)c12)N1CCCC(F)(F)C1 [Example 191, 3-(4-Cyclohexylamino-1H-pyrazolo[4,3-c]pyridin-3-yl)-1-(3,3-difluoro-piperidin-1-yl)-propan-1-one]
100 to 1000 nM	CCN(CC)C(=O)C1CCCN(C(=O)CCc2n[nH]c3ccnc(NC4CCCCC4)c23)C1 (centres unmarked) [Example 193, 1-[3-(4-Cyclohexylamino-1H-pyrazolo[4,3-c]pyridin-3-yl)-propionyl]-piperidine-3-carboxylic acid diethylamide]
< 100 nM	O=C(CCc1n[nH]c2ccnc(NC3CCCCC3)c12)N1CCCC(Cc2ccccc2)C1 (centres unmarked) [Example 194, 1-(3-Benzyl-piperidin-1-yl)-3-(4-cyclohexylamino-1H-pyrazolo[4,3-c]pyridin-3-yl)-propan-1-one]
100 to 1000 nM	O=C(CCc1n[nH]c2ccnc(NC3CCCCC3)c12)N1CCCC(Oc2cccnc2)C1 (centres unmarked) [Example 195, 3-(4-Cyclohexylamino-1H-pyrazolo[4,3-c]pyridin-3-yl)-1-[3-(pyridin-3-yloxy)-piperidin-1-yl]-propan-1-one]
100 to 1000 nM	O=C(CCc1n[nH]c2ccnc(NC3CCCCC3)c12)N1CCCC(C(F)(F)F)C1 (centres unmarked) [Example 202, 3-(4-Cyclohexylamino-1H-pyrazolo[4,3-c]pyridin-3-yl)-1-(3-trifluoromethyl-piperidin-1-yl)-propan-1-one]
100 to 1000 nM	CN(C)C(=O)CCc1n[nH]c2ccnc(NC3CCCCC3)c12 [Example 212, 3-(4-Cyclohexylamino-1H-pyrazolo[4,3-c]pyridin-3-yl)-N,N-dimethyl-propionamide]
< 100 nM	c1ccc(CCc2n[nH]c3ccnc(NC4CCCCC4)c23)cc1 [Example 213, Cyclohexyl-(3-phenethyl-1H-pyrazolo[4,3-c]pyridin-4-yl)-amine]
< 100 nM	c1ccc(CCc2n[nH]c3ccnc(NC4CCCCC4)c23)nc1 [Example 214, Cyclohexyl-[3-(2-pyridin-2-yl-ethyl)-1H-pyrazolo[4,3-c]pyridin-4-yl]-amine]
